Results on one compound are retold here after patent publication EP2252246B1, “CHEMOPROTECTIVE METHODS AND COMPOSITIONS” (BIONUMERIK PHARMACEUTICALS, INC., priority 2008, dated 2009).

In series [1] the test system is patients with advanced non-small cell lung carcinoma (NSCLC). In words: Japan Phase III Clinical Trial (paclitaxel + cisplatin, placebo-controlled; PNQ primary evaluation). It is filed as in vivo, human. The settings on record: paclitaxel/Tavocept/cisplatin vs paclitaxel/saline placebo/cisplatin, NSCLC patients (Figure 5). As to the method: The Japan Phase III Clinical Trial was conducted as a double-blind study because peripheral neuropathy is diagnosed based on subjective symptoms evaluated through clinical interviews, lab tests, and the like. Accordingly, evaluations by both physicians and patients are highly important. […] A placebo was used as control since there is no established therapy or drug for preventing peripheral neuropathy. Because the severity of peripheral neuropathy is evaluated based on patients' reports (i.e., subjective symptoms), the Peripheral Neuropathy Questionnaire (PNQ^© was used in primary evaluation. The CIPN-20 questionnaire and the National Cancer Institute - Common Toxicity Criteria (NCI-CTC) were used in secondary evaluation. The incidence and severity of adverse reactions, time to their onset, etc. and the like, were compared between patients treated with Tavocept™ and those given a placebo using the aforementioned methods.
The Primary Endpoint of the Japan Phase III Clinical Trial described in the present invention was specifically designed to test the hypothesis of whether chemotherapy-induced intermittent peripheral neuropathy would occur. […] The results illustrated in Figure 3 indicate that intermittent peripheral neuropathy was specifically identified and measured in the Japan Phase III Clinical Trial. […]

For series [2] the following is noted: human, in vivo.
Procedure: • Figure 1 illustrates a comparison of the number of hypersensitivity Adverse Events between groups of patients in whom 2,2'-dithio-bis-ethane sulfonate or a placebo was infused over (1) 30 minutes, (2) 30 and 45 minutes, or (3) 45 minutes. […] Drug concentrations of disodium 2,2'-dithio-bis-ethane sulfonate administered were 200 mg/mL infused over 30 minutes, 200 mg/mL and 100 mg/mL infused over 30 & 45 minutes, respectively, and 100 mg/mL infused over 45 minutes.
The patients' body surface area (BSA) was determined based on the use of standard methods that are customarily used for such purposes, including standardized nomograms and calculations that utilize the individual height and weight data from each patient.
Figure 1 illustrates a comparison of the number of hypersensitivity Adverse Events between groups of patients in whom 2,2'-dithio-bis-ethane sulfonate or a placebo was infused over (1) 30 minutes, (2) 30 minutes and 45 minutes, or (3) 45 minutes. In addition, the total number of hypersensitivity Adverse Events, the mean time to the first hypersensitivity Adverse Event, and a variety of the types of hypersensitivity Adverse Events were also shown.
Drug concentrations administered were about 200 mg/mL infused over about 30 minutes, about 200 mg/mL and about 100 mg/mL infused over about 30 & about 45 minutes, respectively, and about 100 mg/mL infused over about 45 minutes.
The test system of another series is tubulin. The following applies: paclitaxel 6 µM; cited from earlier work.
Series [3] has as its system paclitaxel-induced neuropathy model. In words: Paclitaxel-induced thermoparesthesia in the paclitaxel-induced neuropathy model. It is filed as in vivo, rats. The following applies: for maximum inhibition rate (thermoparesthesia): paclitaxel 6 mg/kg i.v. 5-times every other day.

Take `O=S(=O)([O-])CCSSCCS(=O)(=O)[O-].[Na+].[Na+]` [Tavocept, disodium 2,2'-dithio-bis-ethane sulfonate]: the “reduction in severe (Grade D or E) intermittent or cumulative peripheral neuropathy” value in series [1] is reported as roughly 50%. The “reduction in hypersensitivity Adverse Events in the treatment population” value in series [2] is listed as no more than 57%. Further, the “concentration that inhibits tubulin polymerization induced by paclitaxel” value in the series on tubulin was 6 mM. For the same compound, the “maximum inhibition rate (thermoparesthesia)” value in series [3] (1,000 mg/kg) is reported as 41.7%; in series [3] (2,000 mg/kg) it was 41.5%. Moreover, the “inhibition rates of thermoparesthesia” value in series [3] (2,000 mg/kg i.v. immediately after paclitaxel 12 mg/kg i.p. once a week for 5 weeks) is 19.2-34.1%.
